# Assay results reported in patent US10538512B2, “Aminoacylindazole immunomodulators for treatment of autoimmune diseases” (The Rockefeller University, priority 2016, dated 2020).
# Key:
# Human FXIIa = biological target: T1, Human FXIIa (Homo sapiens, UniProt P00748); assay: Factor XIIa (FXIIa) inhibitory activity, chromogenic substrate assay; assay type: biochemical; details: Human FXIIa 12.5 nM, Pefachrome XIIa 400 μM, 10 min preincubation
# T1 construct: active coagulation factor XII (FXIIa); purchased Enzyme Research Labs
# T1 sequence (P00748 373-615 limits assumed): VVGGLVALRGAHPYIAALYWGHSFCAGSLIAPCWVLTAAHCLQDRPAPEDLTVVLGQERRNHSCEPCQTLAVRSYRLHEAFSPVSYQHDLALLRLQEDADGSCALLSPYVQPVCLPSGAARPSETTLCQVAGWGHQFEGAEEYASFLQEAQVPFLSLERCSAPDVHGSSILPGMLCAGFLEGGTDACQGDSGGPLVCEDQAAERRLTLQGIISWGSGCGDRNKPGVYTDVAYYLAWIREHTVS
# T1 sequence (P00748 20-372 partner limits assumed): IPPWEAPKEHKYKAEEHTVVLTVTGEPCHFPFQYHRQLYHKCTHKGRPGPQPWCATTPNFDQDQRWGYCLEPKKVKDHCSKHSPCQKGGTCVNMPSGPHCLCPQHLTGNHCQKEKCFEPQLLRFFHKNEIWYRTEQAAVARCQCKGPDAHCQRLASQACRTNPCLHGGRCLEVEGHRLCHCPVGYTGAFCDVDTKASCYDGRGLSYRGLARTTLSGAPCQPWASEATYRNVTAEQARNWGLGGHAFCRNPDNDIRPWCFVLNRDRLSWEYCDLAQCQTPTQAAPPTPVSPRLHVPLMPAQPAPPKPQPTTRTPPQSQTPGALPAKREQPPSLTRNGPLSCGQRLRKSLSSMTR
# Method in brief: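 Buffer was 0.5× HBSS with 25 mM HEPES pH 7.4 and 0.5× TBS-Tween 0.05%. Enzyme and compound (about 1–100 μM) were preincubated 10 min at room temperature, then Pefachrome XIIa was added at 400 μM final. Substrate cleavage was followed as the rate of A405 change at 37 °C.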
# Human alpha-thrombin = biological target: T2, Human alpha-thrombin (Homo sapiens, UniProt P00734); assay: Thrombin counterscreen for selectivity, fluorogenic substrate assay; assay type: biochemical; details: Human alpha-thrombin 12.5 nM, Boc-Val-Pro-Arg-AMC 20 μM, 10 min preincubation
# T2 construct: Human alpha-thrombin (Enzyme Research Labs); purchased Enzyme Research Labs
# Description: Counterscreens for Selectivity:
# In a 96-well white opaque plate, 80 μl of assay buffer was added to each well. Test compounds were added, and serially diluted as above, to generate a concentration range of approximately 1-100 μM. […] 80 μl of this enzyme solution was added to the assay wells. The enzyme/compound mixtures were incubated for 10 minutes at room temperature. Fluorogenic substrate (Boc-Val-Pro-Arg-7-amido-4-methylcoumarin; Sigma) was added to assay wells at a final concentration of 20 μM. The assay plate was spun for 1 minute at 1500 g and then read at 37° C. in a SpectraMax M2 plate reader (λex=380 nm and λem=460 nm). Activity was quantified as the rate of change in fluorescence, which corresponds to the rate of substrate cleavage.
SMILES,IC50 (Human FXIIa) [µM],IC50 (Human alpha-thrombin) [µM]
"Nc1c2c(nn1C(=O)c1cccc3[nH]ccc13)CCCC2 (single isomer, unassigned) [Example 1, (3-Amino-4,5,6,7-tetrahydro-2H-indazol-2-yl)(1H-indol-4-yl)methanone]",0.1,25
"Nc1nn(C(=O)c2cccc3[nH]ccc23)c2c1CCCC2 (single isomer, unassigned) [Example 2, (3-amino-4,5,6,7-tetrahydroindazol-1-yl)(1H-indol-4-yl)methanone]",> 50,> 50
"Cc1c2c(nn1C(=O)c1cccc3[nH]ccc13)CCCC2 (single isomer, unassigned) [Example 3, (1H-Indol-4-yl)(3-methyl-4,5,6,7-tetrahydroindazol-2-yl)methanone]",5,33
"Cc1nn(C(=O)c2cccc3[nH]ccc23)c2c1CCCC2 (single isomer, unassigned) [Example 4, (1H-indol-4-yl)(3-methyl-4,5,6,7-tetrahydroindazol-1-yl)methanone]",65,45
"Cn1ccc2c(C(=O)n3nc4c(c3N)CCCC4)cccc21 (single isomer, unassigned) [Example 7, (3-Amino-4,5,6,7-tetrahydroindazol-2-yl)(1-methyl-1H-indol-4-yl)methanone]",0.15,30
"Cn1ccc2c(C(=O)n3nc(N)c4c3CCCC4)cccc21 (single isomer, unassigned) [Example 8, (3-amino-4,5,6,7-tetrahydroindazol-1-yl)(1-methyl-1H-indol-4-yl)methanone]",> 50,> 50
"Nc1nn(C(=O)c2cccc3c2ccn3-c2ccccc2)c2c1CCCC2 (single isomer, unassigned) [Example 21, (3-amino-4,5,6,7-tetrahydroindazol-1-yl)(1-phenyl-1H-indol-4-yl)methanone]",–,> 100
"CN1CCC(C(=O)n2nc(N)c3c2CCCC3)c2ccccc21 (single isomer, unassigned) [Example 26, (3-amino-4,5,6,7-tetrahydroindazol-1-yl)(1-methyl-1,2,3,4-tetrahydroquinolin-4-yl)methanone]",–,> 80
"C=Cc1cc2c(C(=O)n3nc(N)c4c3CCCC4)cccc2[nH]1 (single isomer, unassigned) [Example 71, (3-amino-4,5,6,7-tetrahydroindazol-1-yl)(2-vinyl-1H-indol-4-yl)methanone]",–,55
"Nc1c2c(nn1C(=O)[C@@H]1CCNc3ccccc31)CC[C@@H](O)C2 (single isomer, unassigned) [Example 166, ((5R*)-3-amino-5-hydroxy-4,5,6,7-tetrahydroindazol-2-yl)((4R*)-1,2,3,4-tetrahydroquinolin-4-yl)methanone]",–,> 100
"CCc1cc2c(C(=O)n3nc4c(c3N)CCCC4)ccnc2[nH]1 [Example 113, (3-amino-4,5,6,7-tetrahydro-2H-indazol-2-yl)(2-ethyl-1H-pyrrolo[2,3-b]pyridin-4-yl)methanone]",0.05,–
"CCc1cc2c(C(=O)n3nc(N)c4c3CCCC4)ccnc2[nH]1 [Example 114, (3-amino-4,5,6,7-tetrahydro-1H-indazol-1-yl)(2-ethyl-1H-pyrrolo[2,3-b]pyridin-4-yl)methanone]",> 100,–
"Cc1cc2c(C(=O)n3nc4c(c3N)CC(OCc3ccccc3)CC4)cccc2[nH]1 (stereo not shown) [Example 117, (3-amino-5-(benzyloxy)-4,5,6,7-tetrahydroindazol-2-yl)(2-methyl-1H-indol-4-yl)methanone]",0.03,–
"Cc1cc2c(C(=O)n3nc(N)c4c3CCC(OCc3ccccc3)C4)cccc2[nH]1 (stereo not shown) [Example 118, (3-amino-5-(benzyloxy)-4,5,6,7-tetrahydroindazol-1-yl)(2-methyl-1H-indol-4-yl)methanone]",20,–
"COC1CCc2nn(C(=O)c3cccc4[nH]c(C)cc34)c(N)c2C1 (stereo not shown) [Example 119, (3-amino-5-methoxy-4,5,6,7-tetrahydro-2H-indazol-2-yl)(2-methyl-1H-indol-4-yl)methanone]",0.05,–
"Nc1c2c(nn1C(=O)c1ccnc3cc(Cl)ccc13)CCCC2 [Example 123, (3-amino-4,5,6,7-tetrahydro-2H-indazol-2-yl)(7-chloroquinolin-4-yl)methanone]",2.5,–
Nc1nn(C(=O)c2c[nH]c3ccccc23)c2c1CCCC2 [Example 155],–,> 100
Nc1c2c(nn1C(=O)c1ccnc3ccccc13)CCCC2 [Example 158],13,–
Cc1cc2c(C(=O)n3cc4c(n3)CCCC4)cccc2[nH]1 [Example 159],0.15,–
Cc1cc2c(C(=O)n3ncc4c3CCCC4)cccc2[nH]1 [Example 160],6,–
"Nc1nn(C(=O)C2CCNc3ccc(F)cc32)c2c1CC(F)(F)CC2 (stereo not shown) [Example 175, (3-amino-5,5-difluoro-4,5,6,7-tetrahydroindazol-1-yl)(6-fluoro-1,2,3,4-tetrahydroquinolin-4-yl)methanone]",16,–
"Cc1cccc2c1NCCC2C(=O)n1nc(N)c2c1CCC=C2 (stereo not shown) [Example 196, (3-amino-6,7-dihydroindazol-1-yl)(8-methyl-1,2,3,4-tetrahydroquinolin-4-yl)methanone]",7.5,–

# Next, values leading:
IC50 (Human FXIIa) [µM],IC50 (Human alpha-thrombin) [µM],SMILES
1.2,> 75,"Nc1c2c(nn1C(=O)[C@@H]1CCNc3ccc(F)cc31)CC[C@H](O)C2 (relative stereo) [Example 134, ((5S*)-3-amino-5-hydroxy-4,5,6,7-tetrahydro-1H-indazol-2-yl)((4R*)-6-fluoro-1,2,3,4-tetrahydroquinolin-4-yl)methanone]"
1.7,> 50,"Nc1c2c(nn1C(=O)C1CCCc3ccccc31)CCCC2 (single isomer, unassigned) [Example 5, (S*)-(3-Amino-4,5,6,7-tetrahydroindazol-2-yl)(1,2,3,4-tetrahydronaphthalen-1-yl)methanone]"
≥ 50,> 50,"Nc1c2c(nn1C(=O)C1CCCc3ccccc31)CCCC2 (single isomer, unassigned) [Example 6, (R*)-(3-amino-4,5,6,7-tetrahydroindazol-2-yl)(1,2,3,4-tetrahydronaphthalen-1-yl)methanone]"
0.9,–,"Cc1ccc2c(c1)NCCC2C(=O)n1nc2c(c1N)CCCC2 (stereo not shown) [Example 101, (3-amino-4,5,6,7-tetrahydroindazol-2-yl)(7-methyl-1,2,3,4-tetrahydroquinolin-4-yl)methanone]"
0.7,–,"Nc1c2c(nn1C(=O)C1CCNc3cc(Cl)ccc31)CCCC2 (stereo not shown) [Example 103, (3-amino-4,5,6,7-tetrahydroindazol-2-yl)(7-chloro-1,2,3,4-tetrahydroquinolin-4-yl)methanone]"
> 50,–,"Nc1nn(C(=O)C2CCNc3cc(Cl)ccc32)c2c1CCCC2 (stereo not shown) [Example 104, (3-amino-4,5,6,7-tetrahydroindazol-1-yl)(7-chloro-1,2,3,4-tetrahydroquinolin-4-yl)methanone]"
1.8,–,"Nc1c2c(nn1C(=O)C1CCNc3cc(C(F)(F)F)ccc31)CCCC2 (stereo not shown) [Example 105, (3-amino-4,5,6,7-tetrahydro-2H-indazol-2-yl)(7-(trifluoromethyl)-1,2,3,4-tetrahydroquinolin-4-yl)methanone]"
0.25,–,"COc1ccc2c(c1)NCCC2C(=O)n1nc2c(c1N)CCCC2 (stereo not shown) [Example 110, (3-amino-4,5,6,7-tetrahydroindazol-2-yl)(7-methoxy-1,2,3,4-tetrahydroquinolin-4-yl)methanone]"
> 100,–,"COc1ccc2c(c1)NCCC2C(=O)n1nc(N)c2c1CCCC2 (stereo not shown) [Example 111, (3-amino-4,5,6,7-tetrahydroindazol-1-yl)(7-methoxy-1,2,3,4-tetrahydroquinolin-4-yl)methanone]"
0.18,–,"Cn1c(Cl)cc2c1CCCC2C(=O)n1nc2c(c1N)CCCC2 (stereo not shown) [Example 112, (3-amino-4,5,6,7-tetrahydroindazol-2-yl)(2-chloro-1-methyl-4,5,6,7-tetrahydro-1H-indol-4-yl)methanone]"
0.4,–,"Nc1c2c(nn1C(=O)C1CCNc3cc(F)ccc31)CCCC2 (stereo not shown) [Example 115, (3-amino-4,5,6,7-tetrahydroindazol-2-yl)(7-fluoro-1,2,3,4-tetrahydroquinolin-4-yl)methanone]"
1.5,–,Cc1ccc2c(c1)N(C)CCC2C(=O)n1nc2c(c1N)CCCC2 (stereo not shown) [Example 163]
